Source: article PMC10605370 (Biomolecules, 2023)
One block for each compound: values may come before it.

What was measured:
[1] = target: T1, Human D2RL (Homo sapiens, UniProt P14416); assay: β-arrestin2 recruitment BRET assay; format: cell-based; conditions: dose-dependent; maximally effective concentrations (10–100 µM)
[2] = target: PO4-null D2R (Rattus norvegicus, UniProt P61169); assay: β-arrestin2 recruitment BRET assay, PO4-null D2R; format: cell-based; conditions: dose-dependent (Figure 4D)
Sequence of PO4-null D2R (P61169 whole entry, canonical isoform): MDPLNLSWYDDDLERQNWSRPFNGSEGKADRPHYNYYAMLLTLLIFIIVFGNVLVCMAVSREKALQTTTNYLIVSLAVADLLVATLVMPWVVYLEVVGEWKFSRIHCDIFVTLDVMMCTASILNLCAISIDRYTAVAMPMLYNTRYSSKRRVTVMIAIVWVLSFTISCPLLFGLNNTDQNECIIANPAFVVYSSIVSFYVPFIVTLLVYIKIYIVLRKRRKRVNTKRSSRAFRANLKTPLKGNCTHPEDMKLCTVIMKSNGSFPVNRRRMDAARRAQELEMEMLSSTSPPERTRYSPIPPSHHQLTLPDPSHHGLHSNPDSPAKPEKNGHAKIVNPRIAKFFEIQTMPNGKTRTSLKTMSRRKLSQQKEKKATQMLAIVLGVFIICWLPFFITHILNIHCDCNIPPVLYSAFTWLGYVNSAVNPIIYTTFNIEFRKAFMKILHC

[3] = system: other GRK isoforms; conditions: selectively inhibits the GRK2/3 subfamily; cited from earlier work
[4] = system: D2R–GRK2 interactions; set-up: method as in Pack et al., 2018 [21]; conditions: similar BRET assay; ref Pack et al., 2018 [21]; cited from earlier work
[5] = target: T1, Human D2RL; assay: LYN BRET receptor internalization assay; format: cell-based; set-up: expressed in transfected cells; host or cells: HEK293 (parental or GRK knockout lines); conditions: dose-dependent; maximally effective concentration of 100 µM
Method: HEK293 cells were transiently transfected with the indicated D2R-Rluc8 (35 mm plate: 0.1 μg; 100 mm plate: 0.5 μg) and LYN-rGFP (35 mm plate: 1 μg; 100 mm plate: 5 μg) constructs and the indicated GRK construct (35 mm plate: 1 μg; 100 mm plate: 5 μg) or pcDNA control.

[6] = target: T1, Human D2RL; assay: GRK2-GFP recruitment BRET assay (D2R–GRK2 interactions); format: cell-based; set-up: expressed in transfected cells; host or cells: HEK293 (parental or GRK knockout lines); conditions: dose-dependent (Figure 3C)
[7] = target: T1, Human D2RL; assay: Go heterotrimer activation BRET assay; format: cell-based; set-up: expressed in transfected cells; host or cells: HEK293 (parental or GRK knockout lines); conditions: Cmpd101 treatment of HEK293 cells
Method: HEK293 cells were transiently transfected with the Gαo1-Rluc8 (35 mm plate: 0.1 μg; 100 mm plate: 0.5 μg), Gβ1 (35 mm plate: 0.9 μg; 100 mm plate: 4.5 μg), and Gγ2-mVenus (35 mm plate: 1 μg; 100 mm plate: 5 μg) constructs and the indicated untagged D2R construct (35 mm plate: 1 μg; 100 mm plate: 5 μg). […] Cells were then plated in 96-well white solid bottom plates (Greiner, Monroe, NC, USA) and incubated at room temperature for 45 min.

[8] = target: phosphorylation-null (PO4-null) rat D2 dopamine receptor, long isoform, fused to Rluc8 (rat) (UniProt P61169)
Sequence of phosphorylation-null (PO4-null) rat D2 dopamine receptor, long isoform, fused to Rluc8 (rat) (P61169 whole entry, the tested form may be a part, canonical isoform): as the sequence (P61169 whole entry, canonical isoform) above

[9] = target: phosphorylation-null (PO4-null) rat D2 dopamine receptor, long isoform, fused to Rluc8 (rat) (UniProt P61169); assay: FRET or BRET; GRK2 recruitment BRET in live HEK293 cells transfected with D2R-Rluc8 (donor) and GRK2-rGFP (acceptor), with or without compound 101; DPBS with 200 µM sodium metabisulphite, room temperature, 2 µM Prolume Purple; dopamine for 5 min

T1 sequence (P14416 whole entry): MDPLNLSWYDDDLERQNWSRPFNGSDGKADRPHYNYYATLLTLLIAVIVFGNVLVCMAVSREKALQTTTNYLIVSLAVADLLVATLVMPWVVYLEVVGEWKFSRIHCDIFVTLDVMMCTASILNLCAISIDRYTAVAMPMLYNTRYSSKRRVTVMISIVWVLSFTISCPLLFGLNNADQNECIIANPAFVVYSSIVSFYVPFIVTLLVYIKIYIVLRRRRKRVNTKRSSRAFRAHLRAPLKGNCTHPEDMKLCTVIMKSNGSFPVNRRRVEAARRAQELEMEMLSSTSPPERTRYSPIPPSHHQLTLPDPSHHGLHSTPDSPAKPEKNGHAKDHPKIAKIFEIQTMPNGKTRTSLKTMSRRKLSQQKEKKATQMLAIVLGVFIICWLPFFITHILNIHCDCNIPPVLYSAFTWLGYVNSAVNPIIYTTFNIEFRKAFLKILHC
Sequence of β-arrestin2-mVenus (P32121 whole entry): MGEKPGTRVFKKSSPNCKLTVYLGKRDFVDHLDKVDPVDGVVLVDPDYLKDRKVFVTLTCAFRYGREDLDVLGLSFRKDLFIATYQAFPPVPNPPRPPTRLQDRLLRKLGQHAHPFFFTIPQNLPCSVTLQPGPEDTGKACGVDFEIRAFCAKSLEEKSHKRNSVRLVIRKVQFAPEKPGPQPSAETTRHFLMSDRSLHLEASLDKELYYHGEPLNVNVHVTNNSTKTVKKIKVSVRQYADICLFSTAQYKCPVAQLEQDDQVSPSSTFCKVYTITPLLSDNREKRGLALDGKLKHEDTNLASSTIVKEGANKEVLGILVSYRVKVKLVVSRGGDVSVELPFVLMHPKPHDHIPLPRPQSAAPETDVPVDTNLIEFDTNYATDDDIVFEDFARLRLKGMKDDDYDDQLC
Sequence of GRK2-rGFP (P25098 whole entry): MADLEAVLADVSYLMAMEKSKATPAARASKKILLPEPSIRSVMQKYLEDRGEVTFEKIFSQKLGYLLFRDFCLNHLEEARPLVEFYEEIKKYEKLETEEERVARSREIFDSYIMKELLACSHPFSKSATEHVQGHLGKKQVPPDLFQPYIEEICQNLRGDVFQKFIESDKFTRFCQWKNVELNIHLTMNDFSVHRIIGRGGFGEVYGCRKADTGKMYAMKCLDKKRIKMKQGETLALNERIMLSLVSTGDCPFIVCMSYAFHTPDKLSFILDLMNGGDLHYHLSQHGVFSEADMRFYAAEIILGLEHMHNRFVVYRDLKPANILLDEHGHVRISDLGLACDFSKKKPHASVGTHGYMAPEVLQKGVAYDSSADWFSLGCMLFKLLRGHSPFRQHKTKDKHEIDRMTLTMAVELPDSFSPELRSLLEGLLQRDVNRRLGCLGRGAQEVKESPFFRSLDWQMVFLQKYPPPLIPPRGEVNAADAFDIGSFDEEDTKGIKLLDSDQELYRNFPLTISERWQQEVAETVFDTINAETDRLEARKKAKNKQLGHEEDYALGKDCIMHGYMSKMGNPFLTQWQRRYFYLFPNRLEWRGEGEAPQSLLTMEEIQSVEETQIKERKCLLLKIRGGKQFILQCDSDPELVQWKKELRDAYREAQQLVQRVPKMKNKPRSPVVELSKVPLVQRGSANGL

inhibition of dopamine-stimulated β-arrestin2 recruitment to the D2R [1]: unable to completely inhibit
decrease of β-arrestin2 recruitment to the phospho-null D2R [2]: did not completely eliminate
inhibition of dopamine-stimulated D2R internalization [5]: completely block
inhibition of GRK2–D2R interactions [6]: unable to completely block
effect on D2R signaling through G proteins (Go activation BRET assay) [7]: does not alter
Compound: Cn1c(CNc2cccc(C(=O)NCc3ccccc3C(F)(F)F)c2)nnc1-c1ccncc1 [Cmpd101]
affinity for other GRK isoforms [3]: lacks affinity
effect on D2R–GRK2 interactions [4]: no effect

dopamine-stimulated D2R internalization in HEK293 cells (LYN BRET), Emax as a percentage of WT D2R (β-arrestin not transfected in this assay) [8]: 100 % of WT D2R
Compound: β-arrestin2-mVenus (from UniProt P32121 1-409) (natural protein)

Emax of dopamine-stimulated BRET (% of WT D2R) [9]: 102 % of WT D2R
Compound: GRK2-rGFP (from UniProt P25098 1-689) (enzyme)
